Experimental data from publication PMC11345841, “Exploring 2-Sulfonylpyrimidine Warheads as Acrylamide Surrogates for Targeted Covalent Inhibition: A BTK Story” (Journal of Medicinal Chemistry, 2024).
Like-named read-outs stand apart in the source and are kept apart here.

What was measured:
Experiment in all cases: KINOMEscan ScanTK
Type in all cases: binding
[1] = target: T1, EPHB1 (Homo sapiens, UniProt P54762)
T1 construct: purchased Eurofins DiscoverX KINOMEscan (scanTK)
T1 sequence (P54762 18-984): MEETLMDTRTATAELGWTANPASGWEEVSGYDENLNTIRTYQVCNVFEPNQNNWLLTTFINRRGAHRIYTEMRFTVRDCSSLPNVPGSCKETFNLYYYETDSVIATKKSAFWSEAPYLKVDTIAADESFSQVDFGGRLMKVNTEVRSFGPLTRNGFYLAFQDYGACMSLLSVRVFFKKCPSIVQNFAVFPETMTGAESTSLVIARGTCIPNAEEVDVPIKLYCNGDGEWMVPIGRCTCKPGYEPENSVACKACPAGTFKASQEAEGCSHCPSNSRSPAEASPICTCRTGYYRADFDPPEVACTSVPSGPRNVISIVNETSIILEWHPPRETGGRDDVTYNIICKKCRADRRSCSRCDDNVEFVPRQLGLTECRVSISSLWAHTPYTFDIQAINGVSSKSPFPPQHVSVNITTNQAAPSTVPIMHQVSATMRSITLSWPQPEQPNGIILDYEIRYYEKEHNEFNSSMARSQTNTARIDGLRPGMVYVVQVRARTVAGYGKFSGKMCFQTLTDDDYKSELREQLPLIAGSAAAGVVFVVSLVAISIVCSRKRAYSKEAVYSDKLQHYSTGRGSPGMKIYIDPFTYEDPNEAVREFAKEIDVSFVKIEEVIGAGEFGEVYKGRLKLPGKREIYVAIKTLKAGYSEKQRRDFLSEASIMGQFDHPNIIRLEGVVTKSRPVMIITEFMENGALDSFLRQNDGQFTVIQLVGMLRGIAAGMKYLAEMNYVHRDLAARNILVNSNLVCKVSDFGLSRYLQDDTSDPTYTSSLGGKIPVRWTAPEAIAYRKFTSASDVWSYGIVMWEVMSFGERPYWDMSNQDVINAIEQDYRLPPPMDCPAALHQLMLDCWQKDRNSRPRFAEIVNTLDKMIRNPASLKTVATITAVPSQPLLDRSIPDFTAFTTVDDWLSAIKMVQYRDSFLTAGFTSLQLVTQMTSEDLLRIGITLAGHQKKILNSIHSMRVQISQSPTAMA

[2] = target: T2, FER (Homo sapiens, UniProt P16591)
T2 construct: purchased Eurofins DiscoverX KINOMEscan (scanTK)

[3] = target: T3, MST1R (Homo sapiens, UniProt Q04912)
T3 construct: purchased Eurofins DiscoverX KINOMEscan (scanTK)

[4] = target: T4, FLT3-autoinhibited (Homo sapiens, UniProt P36888)
T4 construct: purchased Eurofins DiscoverX KINOMEscan (scanTK)
T4 sequence (P36888 27-993): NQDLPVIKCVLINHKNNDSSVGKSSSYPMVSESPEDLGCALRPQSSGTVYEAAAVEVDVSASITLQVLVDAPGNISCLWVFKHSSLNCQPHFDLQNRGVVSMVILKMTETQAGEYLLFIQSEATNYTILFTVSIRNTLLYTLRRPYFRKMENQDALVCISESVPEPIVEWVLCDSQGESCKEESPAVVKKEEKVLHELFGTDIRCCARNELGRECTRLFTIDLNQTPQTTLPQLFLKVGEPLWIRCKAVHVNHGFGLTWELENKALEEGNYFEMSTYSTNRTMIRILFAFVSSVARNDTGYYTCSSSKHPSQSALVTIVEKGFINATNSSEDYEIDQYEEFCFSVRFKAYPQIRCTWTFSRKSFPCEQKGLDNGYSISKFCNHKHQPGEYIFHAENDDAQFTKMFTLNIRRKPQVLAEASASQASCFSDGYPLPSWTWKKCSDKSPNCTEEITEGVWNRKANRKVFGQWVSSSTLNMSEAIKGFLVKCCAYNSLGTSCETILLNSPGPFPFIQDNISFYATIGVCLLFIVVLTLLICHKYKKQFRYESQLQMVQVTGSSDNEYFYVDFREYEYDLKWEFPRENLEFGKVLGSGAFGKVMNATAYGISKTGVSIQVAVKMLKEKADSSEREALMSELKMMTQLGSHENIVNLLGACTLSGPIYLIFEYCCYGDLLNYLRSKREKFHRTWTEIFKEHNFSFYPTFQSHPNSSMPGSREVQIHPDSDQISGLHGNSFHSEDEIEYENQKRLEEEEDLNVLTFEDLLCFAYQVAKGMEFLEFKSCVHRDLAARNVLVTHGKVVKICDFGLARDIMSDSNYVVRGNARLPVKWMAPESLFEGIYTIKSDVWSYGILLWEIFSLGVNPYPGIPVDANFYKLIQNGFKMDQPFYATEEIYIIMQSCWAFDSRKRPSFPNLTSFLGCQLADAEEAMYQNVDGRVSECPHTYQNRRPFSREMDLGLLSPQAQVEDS

[5] = target: T5, EGFR(S752-I759del) (Homo sapiens, UniProt P00533, DEL752-759)
T5 construct: purchased Eurofins DiscoverX KINOMEscan (scanTK)

[6] = target: T6, EGFR(L858R,T790M) (Homo sapiens, UniProt P00533, L858R/T790M)
T6 construct: purchased Eurofins DiscoverX KINOMEscan (scanTK)

[7] = @1000nM, EPHB1, read-out: %Control
[8] = EPHB1, read-out: %Control @1000nM

T5 sequence (P00533 with tags, fused parts or gaps DEL752-759 limits assumed): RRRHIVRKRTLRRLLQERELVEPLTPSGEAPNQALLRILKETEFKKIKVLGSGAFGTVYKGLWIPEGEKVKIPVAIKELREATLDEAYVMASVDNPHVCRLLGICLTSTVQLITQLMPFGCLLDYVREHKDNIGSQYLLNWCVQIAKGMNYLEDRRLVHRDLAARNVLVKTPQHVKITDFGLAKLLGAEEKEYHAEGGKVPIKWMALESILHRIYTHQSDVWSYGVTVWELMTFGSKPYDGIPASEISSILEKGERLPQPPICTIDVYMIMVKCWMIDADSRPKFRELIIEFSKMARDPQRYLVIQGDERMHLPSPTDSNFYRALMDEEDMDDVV
T2 sequence (P16591 whole entry): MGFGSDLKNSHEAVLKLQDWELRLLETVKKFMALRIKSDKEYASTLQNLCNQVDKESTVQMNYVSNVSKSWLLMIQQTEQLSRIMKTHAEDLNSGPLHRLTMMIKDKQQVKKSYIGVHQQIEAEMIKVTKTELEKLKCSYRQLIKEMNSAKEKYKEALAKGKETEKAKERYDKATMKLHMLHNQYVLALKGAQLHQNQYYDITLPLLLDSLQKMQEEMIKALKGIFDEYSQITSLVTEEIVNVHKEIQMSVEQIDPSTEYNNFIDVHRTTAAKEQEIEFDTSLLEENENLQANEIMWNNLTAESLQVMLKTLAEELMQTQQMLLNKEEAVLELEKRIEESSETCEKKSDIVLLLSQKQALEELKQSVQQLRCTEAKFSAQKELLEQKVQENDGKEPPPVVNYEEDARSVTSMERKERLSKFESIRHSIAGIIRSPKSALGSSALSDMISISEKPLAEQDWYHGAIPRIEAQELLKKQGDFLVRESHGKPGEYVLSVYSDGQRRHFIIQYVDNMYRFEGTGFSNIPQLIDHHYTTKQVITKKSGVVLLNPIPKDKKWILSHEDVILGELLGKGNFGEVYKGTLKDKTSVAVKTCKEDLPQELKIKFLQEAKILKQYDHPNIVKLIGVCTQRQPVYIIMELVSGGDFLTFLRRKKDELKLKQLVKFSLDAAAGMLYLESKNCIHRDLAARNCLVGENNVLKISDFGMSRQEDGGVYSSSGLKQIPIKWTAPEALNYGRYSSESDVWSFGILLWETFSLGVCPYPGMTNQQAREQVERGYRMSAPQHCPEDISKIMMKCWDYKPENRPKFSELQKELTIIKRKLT
T6 sequence (P00533 25-1210 T790M/L858R): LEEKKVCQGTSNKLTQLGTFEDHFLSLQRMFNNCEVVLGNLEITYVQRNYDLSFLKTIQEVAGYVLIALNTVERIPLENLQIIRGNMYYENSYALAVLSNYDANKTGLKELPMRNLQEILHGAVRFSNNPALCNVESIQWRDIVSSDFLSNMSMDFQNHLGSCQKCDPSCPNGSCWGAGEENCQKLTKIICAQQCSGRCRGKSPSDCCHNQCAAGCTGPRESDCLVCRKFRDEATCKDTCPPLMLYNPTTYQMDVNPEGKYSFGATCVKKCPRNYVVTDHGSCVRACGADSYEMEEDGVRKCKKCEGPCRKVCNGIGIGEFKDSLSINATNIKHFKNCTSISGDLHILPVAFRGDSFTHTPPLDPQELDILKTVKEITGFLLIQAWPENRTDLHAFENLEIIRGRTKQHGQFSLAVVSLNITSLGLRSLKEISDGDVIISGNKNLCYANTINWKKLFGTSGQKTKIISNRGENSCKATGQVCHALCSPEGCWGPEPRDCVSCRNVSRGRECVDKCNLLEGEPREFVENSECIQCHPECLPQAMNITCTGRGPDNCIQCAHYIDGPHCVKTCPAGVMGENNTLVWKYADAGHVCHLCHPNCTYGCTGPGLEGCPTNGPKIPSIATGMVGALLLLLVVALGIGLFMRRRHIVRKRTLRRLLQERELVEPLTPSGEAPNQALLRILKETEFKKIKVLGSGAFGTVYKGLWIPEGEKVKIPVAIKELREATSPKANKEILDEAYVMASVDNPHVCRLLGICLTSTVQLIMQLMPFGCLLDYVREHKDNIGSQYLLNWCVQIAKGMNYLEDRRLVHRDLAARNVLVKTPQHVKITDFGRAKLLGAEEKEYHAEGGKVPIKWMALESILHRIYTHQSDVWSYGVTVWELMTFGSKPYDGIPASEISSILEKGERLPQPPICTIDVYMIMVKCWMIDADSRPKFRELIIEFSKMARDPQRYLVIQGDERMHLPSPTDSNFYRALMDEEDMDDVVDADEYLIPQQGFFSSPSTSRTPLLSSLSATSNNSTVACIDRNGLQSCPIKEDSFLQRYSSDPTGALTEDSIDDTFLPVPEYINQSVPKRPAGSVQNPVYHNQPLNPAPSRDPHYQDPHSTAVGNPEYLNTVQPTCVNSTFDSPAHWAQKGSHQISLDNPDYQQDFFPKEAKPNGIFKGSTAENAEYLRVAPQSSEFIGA
T3 sequence (Q04912 25-1400): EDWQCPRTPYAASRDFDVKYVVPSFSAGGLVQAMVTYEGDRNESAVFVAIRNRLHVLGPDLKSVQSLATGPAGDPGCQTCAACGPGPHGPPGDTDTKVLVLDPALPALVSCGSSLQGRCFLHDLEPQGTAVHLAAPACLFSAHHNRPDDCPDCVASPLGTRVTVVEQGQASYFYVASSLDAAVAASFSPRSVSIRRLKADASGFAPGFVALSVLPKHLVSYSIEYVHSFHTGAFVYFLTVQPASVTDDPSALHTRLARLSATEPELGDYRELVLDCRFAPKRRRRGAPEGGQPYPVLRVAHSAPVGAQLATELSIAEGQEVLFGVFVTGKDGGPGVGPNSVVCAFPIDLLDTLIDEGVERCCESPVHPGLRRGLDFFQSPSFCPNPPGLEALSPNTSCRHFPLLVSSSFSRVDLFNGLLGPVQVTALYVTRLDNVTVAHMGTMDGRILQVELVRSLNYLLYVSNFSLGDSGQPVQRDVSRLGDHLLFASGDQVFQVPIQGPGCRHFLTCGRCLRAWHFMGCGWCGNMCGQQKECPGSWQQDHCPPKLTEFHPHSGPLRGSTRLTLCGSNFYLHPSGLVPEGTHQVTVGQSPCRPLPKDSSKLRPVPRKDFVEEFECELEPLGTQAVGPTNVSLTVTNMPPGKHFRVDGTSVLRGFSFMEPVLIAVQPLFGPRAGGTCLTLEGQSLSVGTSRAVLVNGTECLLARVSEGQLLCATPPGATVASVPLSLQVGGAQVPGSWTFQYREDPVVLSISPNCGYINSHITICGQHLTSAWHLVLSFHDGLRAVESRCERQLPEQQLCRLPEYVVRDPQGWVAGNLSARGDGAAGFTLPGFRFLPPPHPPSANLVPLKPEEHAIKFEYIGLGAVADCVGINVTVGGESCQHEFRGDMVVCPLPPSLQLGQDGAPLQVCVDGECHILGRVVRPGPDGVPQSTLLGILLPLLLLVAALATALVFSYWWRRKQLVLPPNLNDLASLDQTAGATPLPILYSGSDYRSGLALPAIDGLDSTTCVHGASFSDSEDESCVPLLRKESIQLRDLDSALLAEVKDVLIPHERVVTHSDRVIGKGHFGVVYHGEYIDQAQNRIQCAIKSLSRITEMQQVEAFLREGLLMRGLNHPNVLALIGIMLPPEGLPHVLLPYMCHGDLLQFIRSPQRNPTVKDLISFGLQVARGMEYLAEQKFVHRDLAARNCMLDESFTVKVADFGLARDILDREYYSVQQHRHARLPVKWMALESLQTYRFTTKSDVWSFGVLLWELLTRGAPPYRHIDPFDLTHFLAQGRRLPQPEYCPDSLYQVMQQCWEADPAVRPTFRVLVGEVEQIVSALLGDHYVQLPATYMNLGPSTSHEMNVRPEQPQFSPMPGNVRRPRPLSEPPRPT

Row | SMILES | remaining binding at 1 µM ([2]; @1000nM, read-out: %Control) | remaining binding at 1 µM ([2]; read-out: %Control @1000nM) | difference in % of control versus compound Ib at 1 µM ([1]; @1000nM, EPHB1) | remaining binding at 1 µM [1, 7] | remaining binding at 1 µM [1, 8] | remaining binding at 1 µM ([3]; @1000nM, read-out: %Control) | remaining binding at 1 µM ([3]; read-out: %Control @1000nM) | difference in %Control vs compound Ib at 1 µM ([4]; @1000nM) | remaining binding at 1 µM ([4]; @1000nM, read-out: %Control) | remaining binding at 1 µM ([4]; read-out: %Control @1000nM) | difference in %Control versus compound Ib at 1 µM ([2]; @1000nM) | difference in %Control versus compound Ib at 1 µM ([5]; @1000nM) | remaining binding at 1 µM ([5]; @1000nM, read-out: %Control) | remaining binding at 1 µM ([5]; read-out: %Control @1000nM) | difference in % of control versus compound Ib at 1 µM ([6]; @1000nM) | remaining binding at 1 µM ([6]; @1000nM, read-out: %Control) | remaining binding at 1 µM ([6]; read-out: %Control @1000nM) | remaining binding at 1 µM ([1]; read-out: %Control) | remaining binding at 1 µM ([1]; read-out: %Control @1000nM)
1 | C=CC(=O)N1CCC[C@@H](n2nc(-c3ccc(Oc4ccccc4)cc3)c3c(N)ncnc32)C1 [Compound 1g, Ibrutinib, reference compound] | 100% | 100% |  |  |  |  |  |  |  |  |  |  |  |  |  |  |  | 90% | 90%
2 | CCOC(=O)c1cnc(S(C)(=O)=O)nc1N1CCC[C@@H](n2nc(-c3ccc(Oc4ccccc4)cc3)c3c(N)ncnc32)C1 [Compound 8c, Ethyl (R)-4-(3-(4-Amino-3-(4-phenoxyphenyl)-1H-pyrazolo[3,4-d]pyrimidin-1-yl)piperidin-1-yl)-2-(methylsulfonyl)pyrimidine-5-carboxylate] | 100% | 100% | 1% | 91% | 91% | 98% | 98% | 3% | 100% | 100% | 0% | 98% | 100% | 100% | 77% | 87% | 87% |  | 
3 | CNC(=O)c1cnc(S(C)(=O)=O)nc1N1CCCC(n2nc(-c3ccc(Oc4ccccc4)cc3)c3c(N)ncnc32)C1 (stereo not drawn) [Compound 8d, 4-(3-(4-Amino-3-(4-phenoxyphenyl)-1H-pyrazolo[3,4-d]pyrimidin-1-yl)piperidin-1-yl)-N-methyl-2-(methylsulfonyl)pyrimidine-5-carboxamide] | 100% | 100% | 1% | 91% | 91% | 100% | 100% | 3% | 100% | 100% | 0% | 67% | 69% | 69% | 49% | 59% | 59% |  | 

Further lines, with some results ahead:

Row | remaining binding at 1 µM ([2]; @1000nM, read-out: %Control) | remaining binding at 1 µM ([2]; read-out: %Control @1000nM) | difference in % of control versus compound Ib at 1 µM ([1]; @1000nM, EPHB1) | remaining binding at 1 µM [1, 7] | remaining binding at 1 µM [1, 8] | remaining binding at 1 µM ([3]; @1000nM, read-out: %Control) | remaining binding at 1 µM ([3]; read-out: %Control @1000nM) | difference in %Control vs compound Ib at 1 µM ([4]; @1000nM) | remaining binding at 1 µM ([4]; @1000nM, read-out: %Control) | remaining binding at 1 µM ([4]; read-out: %Control @1000nM) | difference in %Control versus compound Ib at 1 µM ([2]; @1000nM) | difference in %Control versus compound Ib at 1 µM ([5]; @1000nM) | remaining binding at 1 µM ([5]; @1000nM, read-out: %Control) | remaining binding at 1 µM ([5]; read-out: %Control @1000nM) | difference in % of control versus compound Ib at 1 µM ([6]; @1000nM) | remaining binding at 1 µM ([6]; @1000nM, read-out: %Control) | remaining binding at 1 µM ([6]; read-out: %Control @1000nM) | SMILES | remaining binding at 1 µM ([1]; read-out: %Control) | remaining binding at 1 µM ([1]; read-out: %Control @1000nM)
4 | 100% | 100% | 3% | 93% | 93% | 100% | 100% | -18% | 79% | 79% | 0% | 98% | 100% | 100% | 81% | 91% | 91% | Cc1cnc(S(C)(=O)=O)nc1N1CCCC(n2nc(-c3ccc(Oc4ccccc4)cc3)c3c(N)ncnc32)C1 (stereo not drawn) [Compound 8a, 1-(1-(5-Methyl-2-(methylsulfonyl)pyrimidin-4-yl)piperidin-3-yl)-3-(4-phenoxyphenyl)-1H-pyrazolo[3,4-d]pyrimidin-4-amine] |  | 
5 | 90% | 90% | -2% | 88% | 88% | 96% | 96% | -7% | 90% | 90% | -10% | 80% | 82% | 82% | 69% | 79% | 79% | COC(=O)c1cnc(S(C)(=O)=O)nc1N1CCCC(n2nc(-c3ccc(Oc4ccccc4)cc3)c3c(N)ncnc32)C1 (stereo not drawn) [Compound 8b, Methyl 4-(3-(4-Amino-3-(4-phenoxyphenyl)-1H-pyrazolo[3,4-d]pyrimidin-1-yl)piperidin-1-yl)-2-(methylsulfonyl)pyrimidine-5-carboxylate] |  | 
